The values below come from patent US11274097B2, “2-(het)aryl-substituted condensed bicyclic heterocycle derivatives as pest control agents” (BAYER CROPSCIENCE AKTIENGESELLSCHAFT, priority 2014, dated 2022).

Data set [1] in a line: log P by HPLC on a reversed-phase column (C 18), EEC Directive 79/831 Annex V.A8. Conditions: 55° C.; for LOGP_HCOOH: acidic range, pH 2.7, 0.1% aqueous formic acid/acetonitrile; for LOGP_NEUTRAL: neutral range, pH 7.8, 0.001 molar aqueous ammonium hydrogencarbonate/acetonitrile. It is filed as physicochemical. As for the experimental part: The log P values are measured according to EEC Directive 79/831 Annex V.A8 by HPLC (high-performance liquid chromatography) on a reversed-phase column (C 18). Temperature: 55° C. The LC-MS determination in the acidic range is effected at pH 2.7 using 0.1% aqueous formic acid and acetonitrile (contains 0.1% formic acid) as eluents, linear gradient from 10% acetonitrile to 95% acetonitrile. Called log P (HCOOH) in the table. LC-MS determination in the neutral range is effected at pH 7.8 with 0.001 molar aqueous ammonium hydrogencarbonate solution and acetonitrile as eluents; linear gradient from 10% acetonitrile to 95% acetonitrile. Called log P (neutral) in the table. Calibration is effected with unbranched alkan-2-ones (having 3 to 16 carbon atoms) with known log P values (log P values determined on the basis of the retention times by linear interpolation between two successive alkanone s).

In a further data set the test system is Phaedon cochleariae. The data set can be described thus: Phaedon cochleariae spray test (PHAECO). The format is in vivo. Conditions: application rate 500 g/ha; larvae; after 7 days. How it is done: Phaedon cochleariae—Spray Test (PHAECO)
(§1) Solvent: 78.0 parts by weight of acetone • • 1.5 parts by weight of dimethylformamide
(§2) Emulsifier: alkylaryl polyglycol ether
(§3) To produce an appropriate active ingredient formulation, 1 part by weight of active ingredient is dissolved using the stated parts by weight of solvent and made up with water containing an emulsifier concentration of 1000 ppm until the desired concentration is attained. To produce further test concentrations, the preparation is diluted with emulsifier-containing water.
Discs of Chinese cabbage leaves (Brassica pekinensis) are sprayed with an active ingredient formulation of the desired concentration and, after drying, populated with larvae of the mustard beetle (Phaedon cochleariae).
After 7 days, the efficacy in % is determined. 100% means that all the beetle larvae have been killed; 0% means that no beetle larvae have been killed.

In another data set the test system is Spodoptera frugiperda. Put plainly: Spodoptera frugiperda spray test (SPODFR). The format is in vivo. The note with it: application rate 500 g/ha; maize leaf discs; after 7 days. As for the experimental part: Spodoptera frugiperda—Spray Test (SPODFR)
as §1, §2, §3
Leaf discs of maize (Zea mays) are sprayed with an active ingredient formulation of the desired concentration and, after drying, populated with caterpillars of the armyworm (Spodoptera frugiperda).
After 7 days, the efficacy in % is determined. 100% means that all the caterpillars have been killed; 0% means that no caterpillars have been killed.

The test system of another data set is Tetranychus urticae. The data set can be described thus: Tetranychus urticae spray test, OP-resistant (TETRUR). The format is in vivo. Conditions: bean leaf discs, after 6 days. As for the experimental part:
Tetranychus urticae—Spray Test, OP-Resistant (TETRUR)
as §1, §2, §3
Discs of bean leaves (Phaseolus vulgaris) infested by all stages of the greenhouse red spider mite (Tetranychus urticae) are sprayed with an active ingredient formulation of the desired concentration.
After 6 days, the efficacy in % is determined. 100% means that all the spider mites have been killed; 0% means that none of the spider mites have been killed.

In the next data set the test system is Myzus persicae. Put plainly: Myzus persicae spray test (MYZUPE), Chinese cabbage leaf discs. The format is in vivo. The note with it: after 6 days. How it is done: Myzus persicae—Spray Test (MYZUPE)
Solvent: 78 parts by weight of acetone • • 1.5 parts by weight of dimethylformamide
Emulsifier: alkylaryl poly glycol ether
as §3
Discs of Chinese cabbage leaves (Brassica pekinensis) infested by all stages of the green peach aphid (Myzus persicae) are sprayed with an active ingredient formulation of the desired concentration.
After 6 days, the efficacy in % is determined. 100% means that all the aphids have been killed; 0% means that none of the aphids have been killed.

Each structure is given as a SMILES string.

In data set [1], `CCSc1cc(C(F)(F)F)cnc1-c1nc2cc(C(F)(F)F)ncc2n1C` [Example I-2] displayed an LOGP_HCOOH of 3.52. For the same compound, in data set [1], the LOGP_NEUTRAL was 3.48. Besides, the efficacy in the data set on Phaedon cochleariae amounted to 100%; with Spodoptera frugiperda, 100%; in the data set with Tetranychus urticae (application rate 500 g/ha), 90%.
In data set [1], `CC[S+]([O-])c1ccc(Cl)cc1-c1nc2cc(C(F)(F)F)ncc2n1C` (stereo not drawn) [Example I-13] showed an LOGP_HCOOH of 2.44. For the same compound, the LOGP_NEUTRAL in data set [1] was found to be 2.34. The efficacy in the data set on Myzus persicae (application rate 500 g/ha) stood at 100%; with Phaedon cochleariae, 100%; with Tetranychus urticae (application rate 500 g/ha), 90%.
Compound `CCSc1ccc(Cl)cc1-c1nc2cc(C(F)(F)F)ncc2n1C` [Example I-19] registered an LOGP_HCOOH in data set [1] of 3.43. This compound showed an LOGP_NEUTRAL in data set [1] of 3.38. The efficacy was determined as 90% in the data set on Myzus persicae (application rate 500 g/ha), 100% in the data set on Phaedon cochleariae, 83% with Spodoptera frugiperda and 90% in the data set with Tetranychus urticae (application rate 500 g/ha).
With `CC[S+]([O-])c1ccccc1-c1nc2cc(C(F)(F)F)ncc2n1C` (stereo not drawn) [Example I-22], in data set [1], the LOGP_HCOOH came out at 1.90. The LOGP_NEUTRAL in data set [1] is reported as 1.87. In addition, the results for the efficacy in the data set on Myzus persicae (application rate 500 g/ha), with Phaedon cochleariae and in the data set with Tetranychus urticae (application rate 500 g/ha) were 100%, 100% and 90%, respectively.
Take `CCSc1cc(C(F)(F)F)cnc1-c1nc2nc(C(F)(F)F)ncc2n1C` [Example I-28]: in data set [1], the LOGP_HCOOH came to 3.29 and the LOGP_NEUTRAL turned out to be 3.22. In the data set with Phaedon cochleariae, the efficacy was found to be 100%. Besides, the efficacy with Tetranychus urticae (application rate 500 g/ha) is listed as 90%.
Turning to `CCC[S+]([O-])c1cc(C(F)(F)F)cnc1-c1nc2cc(C(F)(F)F)ncc2n1C` (stereo not drawn) [Example I-39], the LOGP_HCOOH in data set [1] is recorded as 3.52. The compound further had an LOGP_NEUTRAL in data set [1] of 3.45. For the same compound, the results for the efficacy in the data set with Myzus persicae (application rate 20 g/ha), in the data set with Phaedon cochleariae and in the data set with Spodoptera frugiperda were 90%, 100% and 100%, respectively.
For the compound `CCSc1cc(Cl)ccc1-c1nc2cc(C(F)(F)F)ncc2n1C` [Example I-42], the LOGP_HCOOH in data set [1] was found to be 3.46. The same compound displayed an LOGP_NEUTRAL in data set [1] of 3.39. Besides, the efficacy in the data set with Myzus persicae (application rate 500 g/ha) is on record as 90%; in the data set on Phaedon cochleariae, 100%; in the data set with Spodoptera frugiperda, 100%; in the data set on Tetranychus urticae (application rate 500 g/ha), 90%.
As to `CC[S+]([O-])c1cc(Cl)ccc1-c1nc2cc(C(F)(F)F)ncc2n1C` (stereo not drawn) [Example I-44], in data set [1], the LOGP_HCOOH is recorded as 2.45. Further, the LOGP_NEUTRAL in data set [1] is listed as 2.36. Besides, the efficacy with Myzus persicae (application rate 500 g/ha) amounted to 100%; in the data set on Phaedon cochleariae, 100%; with Tetranychus urticae (application rate 500 g/ha) it was 90%.
`CCSc1cccnc1-c1nc2cc(C(F)(F)C(F)(F)F)ncc2n1C` [Example I-46] had an LOGP_HCOOH in data set [1] of 2.98. In data set [1], this compound returned an LOGP_NEUTRAL of 2.92. In addition, the figures for the efficacy in the data set with Myzus persicae (application rate 500 g/ha), with Phaedon cochleariae and with Spodoptera frugiperda were 90%, 100% and 100%, respectively.
The compound `CCS(=O)(=O)c1c(C(F)(F)F)ccnc1-c1nc2cc(C(F)(F)F)ncc2n1C` [Example I-48] showed an LOGP_HCOOH in data set [1] of 2.70. Moreover, the LOGP_NEUTRAL in data set [1] is listed as 2.64. In addition, the efficacy in the data set on Myzus persicae (application rate 500 g/ha) was 100%; with Phaedon cochleariae, 100%; in the data set on Spodoptera frugiperda, 83%; with Tetranychus urticae (application rate 100 g/ha), 90%.
Turning to `CCSc1ccc(OC)nc1-c1nc2cc(C(F)(F)F)ncc2n1C` [Example I-53], the LOGP_HCOOH in data set [1] came to 3.12. Besides, the figures for the efficacy in the data set on Phaedon cochleariae and in the data set on Tetranychus urticae (application rate 500 g/ha) were 100% and 90%, respectively.
In data set [1], `CC[S+]([O-])c1cccnc1-c1nc2cc(C(F)(F)C(F)(F)F)ncc2n1C` (stereo not drawn) [Example I-61] came in with an LOGP_HCOOH of 2.71. Also, in data set [1], the LOGP_NEUTRAL stood at 2.63. The efficacy was 90% with Myzus persicae (application rate 500 g/ha), 100% in the data set on Phaedon cochleariae and 100% in the data set with Spodoptera frugiperda.
